# Source: patent publication US20200360364A1, “METHODS AND COMPOSITIONS FOR TREATING INFLAMMATORY OR AUTOIMMUNE DISEASES OR CONDITIONS USING CHRNA6 ACTIVATORS” (Flagship Pioneering Innovations V, Inc., priority 2018, published 2020)
# Like-named read-outs stand apart in the source and are kept apart here.
# Test system: iTreg-mediated immunosuppression of CD8+ T-cell activation
# Assay type: cell-based, human
# Conditions: for Fold Change % IFNγ+ CD8+ Relative to No Compound Condition: 2 nM final concentration
smiles,measurement,setting,value
CN1CCCC1c1cccnc1 (stereo not shown) [nicotine],Fold Change % IFNγ+ CD8+ Relative to No Compound Condition,"donor BX23981, CD4+ T-cell:CD8+ T-cell ratio 1:2",1.20 ± 0.038
same,Fold Change % IFNγ+ CD8+ Relative to No Compound Condition,"donor BX23981, CD4+ T-cell:CD8+ T-cell ratio 2:1",0.88 ± 0.035
same,Fold Change % IFNγ+ CD8+ Relative to No Compound Condition,"donor BX24250, CD4+ T-cell:CD8+ T-cell ratio 1:2",0.84 ± 0.10
same,Fold Change % IFNγ+ CD8+ Relative to No Compound Condition,"donor BX24250, CD4+ T-cell:CD8+ T-cell ratio 2:1",1.07 ± 0.046
same,Fold Change % IFNγ+ CD8+ Relative to No Compound Condition,"donor BX26425, CD4+ T-cell:CD8+ T-cell ratio 1:1",0.31 ± 0.089
same,Fold Change % IFNγ+ CD8+ Relative to No Compound Condition,"donor BX26425, CD4+ T-cell:CD8+ T-cell ratio 1:2",0.42 ± 0.044
same,Fold Change % IFNγ+ CD8+ Relative to No Compound Condition,"donor BX26425, CD4+ T-cell:CD8+ T-cell ratio 2:1",0.18 ± 0.11
same,Fold Change % IFNγ+ CD8+ Relative to No Compound Condition,"donor BX26825, CD4+ T-cell:CD8+ T-cell ratio 1:1",0.70 ± 0.10
same,Fold Change % IFNγ+ CD8+ Relative to No Compound Condition,"donor BX26825, CD4+ T-cell:CD8+ T-cell ratio 1:2",0.91 ± 0.14
same,Fold Change % IFNγ+ CD8+ Relative to No Compound Condition,"donor BX27275, CD4+ T-cell:CD8+ T-cell ratio 1:1",1.16 ± 0.12
same,Fold Change % IFNγ+ CD8+ Relative to No Compound Condition,"donor BX27275, CD4+ T-cell:CD8+ T-cell ratio 2:1",1.38 ± 0.41
same,Fold Change % IFNγ+ CD8+ Relative to No Compound Condition,"donor BX27275, CD4+ T-cell:CD8+ T-cell ratio 2:1 (first line)",0.9 ± 0.12
same,IFNγ+CD8+ T-cells in co-culture,"final concentration of 2 nM, added at beginning of iTreg/CD8+ co-culture, read three days after co-culture",trend of decreasing IFNγ+CD8+ T-cells
